Reference: patent US20070197485A1, “Therapy and Use of Compounds in Therapy” (MAX-DELBRUECK-CENTRUM FUR MOLEKULARE MEDIZIN, priority 1999, published 2007)

Experiments:
[1] = system: monocyte generated cytokine production in response to LPS; conditions: in vitro, in the concentrations used; cited from earlier work
[2] = system: whole blood TNF production; experiment: Whole blood TNF production after therapeutic application of UDCA; format: in vivo, human; conditions: patient 4; after 2 days of UDCA treatment, 3 times 250 mg daily
Protocol: (§1) We have tested the ability of the therapeutic application of ursodeoxycholic acid (UDCA, FALK Pharma GmbH) to lower plasma levels of TNF and IL6 and to lower spontaneous and LPS-stimulated whole blood cytokine production in patients with cachexia.
(§2) We studied in 2 patients with cachexia due to liver cirrhosis plasma cytokine levels after treatment with 3 times 250 mg daily UDCA (FALK Pharma GmbH). The patients had weight loss >7.5% compared to their previous normal weight. The patients were studied at baseline prior to the treatment on 2 subsequent days (day ”−1” and day “0”), and then they were restudied on day 1 (“1”), day 2 (“2”), and day 5 (“5”), see FIGS. 9 and 12.
(§3) Methods: Heparinized whole blood was diluted 1:10 with medium ±LPS (50 pg/ml), ±BPI (1 ug/ml), and ±UDCA (1 ug/ml-1 mg/ml) according to the manufacturer's recommendation (Milenia whole blood assay; DPC Biermann, Bad Nauheim, Germany) and incubated for 4 hours at 37° C. In the supernatant and in plasma, we assessed concentrations of TNF and IL-6 using the semiautomated Immulite system (DPC-Biermann, Bad Nauheim, Germany).

[3] = system: TNF production in whole blood of patients with cachexia; experiment: Milenia whole blood assay, TNF production (in vitro addition of UDCA / BPi); format: cell-based, human
Protocol: (§4) We have tested the ability of ursodeoxycholic acid (UDCA, FALK Pharma GmbH) and BPi to inhibit LPS-mediated TNF production in whole blood of patients with cachexia. We studied 4 patients with cachexia due to liver cirrhosis. The patients had all weight loss >7.5% compared to their previous normal weight. […] All patients were studied twice on 2 subsequent days (day “−1” and day “0”), see FIG. 9 to 12.
Methods: Heparinized whole blood was diluted 1:10 with medium ±LPS (50 μg/ml), ±BPi (1 μg/ml), and ±UDCA (1 μg/ml-1 mg/ml) according to the manufacturer's recommendation (Milenia whole blood assay; DPC Biermann, Bad Nauheim, Germany) and incubated for 4 hours at 37° C. In the supernatant, we assessed concentrations of TNF and IL-6 using the semiautomated Immulite system (DPC-Biermann, Bad Nauheim, Germany).

[4] = system: whole blood IL6 production; experiment: Whole blood IL6 production after therapeutic application of UDCA; format: in vivo, human; conditions: patient 4; after 2 days of UDCA treatment, 3 times 250 mg daily
Protocol: as §1, §2, §3

[5] = system: IL6 production in whole blood of patients with cachexia; experiment: Milenia whole blood assay, IL6 production (in vitro addition of UDCA / BPi); format: cell-based, human
Text: as §4
[…] In the supernatant, we assessed concentrations of TNF and IL-6 using the semiautomated Immulite system (DPC-Biermann, Bad Nauheim, Germany).

[6] = system: LPS-induced TNF-α release; experiment: LPS-induced TNF-α release with lipoproteins / LBP (FIG. 4 to 7); format: cell-based; conditions: addition of LBP to a lipoprotein containing serum (FIG. 7)
[7] = 100 ug/ml UDCA, whole blood of patients with cachexia due to liver cirrhosis, 4 hours at 37° C
[8] = 1 mg/ml UDCA, whole blood of patients with cachexia due to liver cirrhosis diluted 1:10, 4 hours at 37° C, on average
[9] = BPi 1 ug/ml, in 6 of 8 experiments, or towards non-detectability, 2 cases stable, p<0.05
[10] = BPi 1 ug/ml, whole blood of patients with cachexia due to liver cirrhosis, no LPS

With `C[C@H](CCC(=O)O)[C@H]1CC[C@H]2[C@@H]3[C@H](O)C[C@@H]4C[C@H](O)CC[C@]4(C)[C@H]3CC[C@]12C` [chenodeoxycholic acid] as the molecule, how does the “effect on monocyte generated cytokine production in response to LPS” value [1] read?
Its value is “less effective”.

For `C[C@H](CCC(=O)O)[C@H]1CC[C@H]2[C@@H]3[C@@H](O)C[C@@H]4C[C@H](O)CC[C@]4(C)[C@H]3CC[C@]12C` [UDCA, ursodeoxycholic acid], which “LPS-stimulated TNF production lowered” value [2] is on record?
The value was 43.5%.

And the “reduction of LPS-stimulated TNF production” value [3, 7]?
Its value is 42%.

And the “reduction of LPS-stimulated TNF production” value [3, 8]?
Its value is over 99%.

What about the “LPS-stimulated IL6 production lowered” value [4] of the same molecule?
Its value is 39.6%.

What about the “reduction of LPS-stimulated IL6 production” value [5, 7] of the same molecule?
Its value is 13%.

What about the “reduction of LPS-stimulated IL6 production” value [5, 8] of the same molecule?
The value was 97%.

B1: BPi: BPi, agent tested to inhibit LPS-mediated TNF production in whole blood; not spelled out in the text (protein, UniProt P17213 32-487, looked up)
Bactericidal …: VNPGVVVRISQKGLDYASQQGTAALQKELKRIKIPDYSDSFKIKHLGKGHYSFYSMDIREFQLPSSQISMVPNVGLKFSISNANIKISGKWKAQKRFLKMSGNFDLSIEGMSISADLKLGSNPTSGKPTITCSSCSSHINSVHVHISKSKVGWLIQLFHKKIESALRNKMNSQVCEKVTNSVSSELQPYFQTLPVMTKIDSVAGINYGLVAPPATTAETLDVQMKGEFYSENHHNPPPFAPPVMEFPAAHDRMVYLGLSDYFFNTAGLVYQEAGVLKMTLRDDMIPKESKFRLTTKFFGTFLPEVAKKFPNMKIQIHVSASTPPHLSVQPTGLTFYPAVDVQAFAVLPNSSLASLFLIGMHTTGSMEVSAESNRLVGELKLDRLLLELKHSNIGPFPVELLQDIMNYIVPILVLPRVNEKLQKGFPLPTPARVQLYNVVLQPHQNFLLFGADVVYK
Which “lowering of spontaneous TNF levels” value [3, 9] does the source give for B1 here?
Its value is “at least 5 pg/mi”.

What about the “spontaneous production of TNF” value [3, 10] of the same molecule?
The value was “reduced significantly”.

And the “lowering of spontaneous IL6 levels” value [5, 9]?
The value was “at least 5 pg/mi”.

What about the “spontaneous production of IL6” value [5, 10] of the same molecule?
Its value is “reduced significantly”.

B2: LBP: LPS binding protein (protein, UniProt P18428 26-481, looked up)
Lipopolysaccharide-binding …: ANPGLVARITDKGLQYAAQEGLLALQSELLRITLPDFTGDLRIPHVGRGRYEFHSLNIHSCELLHSALRPVPGQGLSLSISDSSIRVQGRWKVRKSFFKLQGSFDVSVKGISISVNLLLGSESSGRPTVTASSCSSDIADVEVDMSGDLGWLLNLFHNQIESKFQKVLESRICEMIQKSVSSDLQPYLQTLPVTTEIDSFADIDYSLVEAPRATAQMLEVMFKGEIFHRNHRSPVTLLAAVMSLPEEHNKMVYFAISDYVFNTASLVYHEEGYLNFSITDDMIPPDSNIRLTTKSFRPFVPRLARLYPNMNLELQGSVPSAPLLNFSPGNLSVDPYMEIDAFVLLPSSSKEPVFRLSVATNVSATLTFNTSKITGFLKPGKVKVELKESKVGLFNAELLEALLNYYILNTFYPKFNDKLAEGFPLPLLKRVQLYDLGLQIHKDFLFLGANVQYMRV
Which “LPS-mediated TNF-α production” value [6] does the source give for B2 here?
The value was “reduced”.
